Data published in patent US11052091B2, “BRK inhibitory compound” (ONO PHARMACEUTICAL CO., LTD., priority 2016, dated 2021).

Legend:
[1] = biological target: Brk enzyme (Homo sapiens (Human), UniProt Q13882); experiment: Measurement of Brk inhibitory activity (LanthaScreen TR-FRET); conditions: read-out: Brk inhibitory activity (IC50)
Method: Measurement of an inhibitory activity on Brk enzyme was performed by using LanthaScreen (registered trademark) system (Invitrogen) in accordance with the attached manual. Reagents used are described below.
Reaction Buffer: A solution containing 50 mmol/L HEPES (pH 7.5), 0.01% Brij 35, 10 mmol/L MgCl2 and 1 mmol/L EGTA was prepared by using purified water.
A solution of a test substance (the compound of the present invention): A solution of each concentration of a test compound in DMSO was diluted 20-fold with Reaction Buffer, and a solution containing a test compound at a concentration 5 times a final concentration was prepared. An enzyme solution: A solution containing 480 ng/mL of Brk enzyme was prepared by using Reaction Buffer. […] A detection solution: A solution containing 20 mmol/L of EDTA and 4 nmol/L of PY20 (Invitrogen) was prepared by using Dilution B (Invitrogen).
To a 96-well plate (Nunc), a solution of 10 mmol/L of a test compound in DMSO was dispensed, and further, a dilution series at a common ratio of three was prepared by using DMSO. […] The phosphorylation of the artificial substrate was quantified by Time-Resolved Fluorescence Resonance Energy Transfer (TR-FRET). […]

[2] = biological target: p38α (Homo sapiens (Human), UniProt Q16539); experiment: Enzyme inhibitory activity on kinases other than Brk (selectivity), p38α; type: biochemical; conditions: compound concentration of 1 μmol/L; read-out: inhibition rates (%) p38α
Method: The compound of the present invention was dissolved in DMSO to prepare a solution with a concentration of 100 times the test concentration of 1 μmol/L. The solution was further diluted 25-fold with Assay Buffer (20 mmol/L HEPES, 0.01% Triton X-100, 2 mmol/L DTT, pH 7.5) to give a test substance solution. With regard to a positive control substance, a solution of the positive control substance was prepared in a similar manner.
Five microliters of a test substance solution with a concentration of four times prepared by using Assay Buffer, 5 μL of a solution of a substrate/ATP/a metal (Mg) with a concentration of four times and 10 μL of a solution of kinase with a concentration of two times were mixed in a well of a 384-well plate made of polypropylene, and the mixture was subjected to a reaction at room temperature for 1 hour. To the mixture, 60 μL of Termination Buffer (QuickScout Screening Assist MSA; Cama Biosciences, Inc.) was added to stop the reaction. The substrate peptide and the phosphorylated peptide in the reaction solution were separated, and were quantified. The kinase reaction was evaluated by a product ratio (P/(P+S)) calculated from a peak height (S) of the substrate peptide and a peak height (P) of the phosphorylated peptide. As other kinases, kinase selectivity experiments were performed using, for example, the p38α and Syk kinases. […]

p38α, sequence (Q16539 whole entry): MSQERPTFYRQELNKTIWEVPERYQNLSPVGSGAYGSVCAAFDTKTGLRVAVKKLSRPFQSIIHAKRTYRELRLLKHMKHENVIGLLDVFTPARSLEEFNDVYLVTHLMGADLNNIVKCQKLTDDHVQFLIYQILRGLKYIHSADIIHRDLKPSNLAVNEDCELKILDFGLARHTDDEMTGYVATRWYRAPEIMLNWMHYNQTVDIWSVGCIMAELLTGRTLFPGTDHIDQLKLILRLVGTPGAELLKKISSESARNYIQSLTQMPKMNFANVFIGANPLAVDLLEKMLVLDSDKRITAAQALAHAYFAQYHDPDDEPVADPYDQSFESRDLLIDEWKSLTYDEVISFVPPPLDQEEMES
Brk enzyme, sequence (Q13882 whole entry): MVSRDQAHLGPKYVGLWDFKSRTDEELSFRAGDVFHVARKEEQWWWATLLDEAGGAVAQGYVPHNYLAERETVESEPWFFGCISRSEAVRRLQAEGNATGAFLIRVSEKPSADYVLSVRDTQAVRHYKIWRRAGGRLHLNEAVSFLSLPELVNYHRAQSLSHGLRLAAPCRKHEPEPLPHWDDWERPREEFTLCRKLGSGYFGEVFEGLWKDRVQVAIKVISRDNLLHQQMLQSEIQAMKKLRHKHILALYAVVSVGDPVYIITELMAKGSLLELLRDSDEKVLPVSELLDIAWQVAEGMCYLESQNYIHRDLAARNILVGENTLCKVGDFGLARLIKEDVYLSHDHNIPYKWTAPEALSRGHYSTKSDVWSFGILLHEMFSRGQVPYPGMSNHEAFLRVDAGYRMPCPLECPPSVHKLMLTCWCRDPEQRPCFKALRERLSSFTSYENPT

Row | IC50 [1] [nM] | inhibition at 1 µM [2] [%] | Compound
1 | 22 |  | 6-amino-2-{[2-difluoro-4-(methylsulfonyl)phenyl]amino}-7-(7-fluoro-1H-indazol-4-yl)-9-isopropyl-7,9-dihydro-8H-purin-8-one [Example 5-11]
2 |  | ≤ 24 | CC(C)n1c(=O)n(-c2ccc(F)c3[nH]ncc23)c2c(N)nc(Nc3ccc(S(C)(=O)=O)cc3F)nc21 [Example 3, 6-amino-7-(7-fluoro-1H-indazol-4-yl)-2-{[2-fluoro-4-(methylsulfonyl)phenyl]amino}-9-isopropyl-7,9-dihydro-8H-purin-8-one]
